Several values for one entry are separate records, joined by “and”; a condition that tells them apart may be missing. Identical values can stand only once.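 48-hour exposure; five concentrations; linearly interpolated endpoints. Here, GI50 denotes the concentration required for 50% inhibition of growth. TGI denotes the concentration required for complete inhibition of growth.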
Columns and labels:
Assay in all cases: DTP human tumour cell line panel, 48 h
HT29 colon = tested on: HT29 colon
HOP-92 NSCLC = tested on: HOP-92 NSCLC
HCC-2998 colon = tested on: HCC-2998 colon
SF-268 CNS = tested on: SF-268 CNS
A498 renal = tested on: A498 renal
ACHN renal = tested on: ACHN renal
MCF7 breast = tested on: MCF7 breast
OVCAR-5 ovarian = tested on: OVCAR-5 ovarian
NCI-H226 lung = tested on: NCI-H226 lung
HS 578T breast = tested on: HS 578T breast
MDA-N = tested on: MDA-N
K-562 leukemia = tested on: K-562 leukemia
UO-31 renal = tested on: UO-31 renal
SW-620 colon = tested on: SW-620 colon
PC-3 prostate = tested on: PC-3 prostate
NCI-H522 lung = tested on: NCI-H522 lung
HL-60(TB) leukemia = tested on: HL-60(TB) leukemia
SK-MEL-5 melanoma = tested on: SK-MEL-5 melanoma
CAKI-1 renal = tested on: CAKI-1 renal
OVCAR-4 ovarian = tested on: OVCAR-4 ovarian
SNB-19 CNS = tested on: SNB-19 CNS
HCT-116 colon = tested on: HCT-116 colon
NCI-H23 lung = tested on: NCI-H23 lung
786-0 renal = tested on: 786-0 renal
MALME-3M melanoma = tested on: MALME-3M melanoma
MDA-MB-231 breast = tested on: MDA-MB-231 breast
SN12C renal = tested on: SN12C renal
A549 NSCLC = tested on: A549 NSCLC
BT-549 breast = tested on: BT-549 breast
MOLT-4 leukemia = tested on: MOLT-4 leukemia
MDA-MB-435 = tested on: MDA-MB-435
KM12 colon = tested on: KM12 colon
HCT-15 colon = tested on: HCT-15 colon
EKVX NSCLC = tested on: EKVX NSCLC
RXF 393 renal = tested on: RXF 393 renal
SK-MEL-2 melanoma = tested on: SK-MEL-2 melanoma
HOP-62 NSCLC = tested on: HOP-62 NSCLC
OVCAR-3 ovarian = tested on: OVCAR-3 ovarian
M14 melanoma = tested on: M14 melanoma
U251 CNS = tested on: U251 CNS
SF-295 CNS = tested on: SF-295 CNS
NCI/ADR-RES ovarian = tested on: NCI/ADR-RES ovarian
LOX IMVI melanoma = tested on: LOX IMVI melanoma
SR leukemia = tested on: SR leukemia
NCI-H460 lung = tested on: NCI-H460 lung
DMS 114 small cell lung = tested on: DMS 114 small cell lung
UACC-257 melanoma = tested on: UACC-257 melanoma
DU-145 prostate = tested on: DU-145 prostate
IGROV1 ovarian = tested on: IGROV1 ovarian
OVCAR-8 ovarian = tested on: OVCAR-8 ovarian
SF-539 CNS = tested on: SF-539 CNS
UACC-62 melanoma = tested on: UACC-62 melanoma

For `Cc1c(CNc2ccc(C(=O)NC(CC(=O)O)C(=O)O)cc2)ccc2nc(N)nc(N)c12` (stereo unspecified), the TGI (HT29 colon) was > 1000 µM, the GI50 (HOP-92 NSCLC) was > 1000 µM and the TGI (HOP-92 NSCLC) was > 1000 µM. The TGI (HCC-2998 colon) was 21.2 µM, the TGI (SF-268 CNS) was > 1000 µM and the TGI (A498 renal) was > 1000 µM. For the same molecule, the TGI (ACHN renal) was > 1000 µM, the TGI (MCF7 breast) was > 1000 µM and the TGI (OVCAR-5 ovarian) was > 1000 µM. For the same molecule, the GI50 (NCI-H226 lung) was > 1000 µM, the TGI (NCI-H226 lung) was > 1000 µM and the TGI (HS 578T breast) was > 1000 µM. The TGI (MDA-N) was > 1000 µM, the TGI (K-562 leukemia) was > 1000 µM and the TGI (UO-31 renal) was > 1000 µM. For the same molecule, the TGI (SW-620 colon) was > 1000 µM, the GI50 (PC-3 prostate) was < 0.01 µM and the TGI (PC-3 prostate) was > 1000 µM. The GI50 (NCI-H522 lung) was 0.57 µM, the TGI (NCI-H522 lung) was > 73.8 µM and 691 µM and the TGI (HL-60(TB) leukemia) was > 1000 µM. For the same molecule, the TGI (SK-MEL-5 melanoma) was > 1000 µM, the GI50 (CAKI-1 renal) was 48.6 µM and the TGI (CAKI-1 renal) was > 1000 µM. The GI50 (OVCAR-4 ovarian) was > 1000 µM, the TGI (OVCAR-4 ovarian) was > 1000 µM and the TGI (SNB-19 CNS) was > 1000 µM. For the same molecule, the TGI (HCT-116 colon) was > 1000 µM, the TGI (NCI-H23 lung) was > 1000 µM and the TGI (786-0 renal) was > 1000 µM. The GI50 (MALME-3M melanoma) was < 0.01 µM, the TGI (MALME-3M melanoma) was > 1000 µM and the GI50 (MDA-MB-231 breast) was > 1000 µM. For the same molecule, the TGI (MDA-MB-231 breast) was > 1000 µM, the TGI (SN12C renal) was > 1000 µM and the TGI (A549 NSCLC) was > 1000 µM. The GI50 (BT-549 breast) was > 1000 µM, the TGI (BT-549 breast) was > 1000 µM and the TGI (MOLT-4 leukemia) was > 1000 µM. The TGI (MDA-MB-435) was > 1000 µM, the TGI (KM12 colon) was > 1000 µM and the TGI (HCT-15 colon) was > 1000 µM. The GI50 (EKVX NSCLC) was > 1000 µM, the TGI (EKVX NSCLC) was > 1000 µM and the GI50 (RXF 393 renal) was > 1000 µM. The TGI (RXF 393 renal) was > 1000 µM, the GI50 (SK-MEL-2 melanoma) was > 1000 µM and the TGI (SK-MEL-2 melanoma) was > 1000 µM. For the same molecule, the TGI (HOP-62 NSCLC) was > 1000 µM, the GI50 (OVCAR-3 ovarian) was 34.6 µM and the TGI (OVCAR-3 ovarian) was > 1000 µM. For the same molecule, the TGI (M14 melanoma) was > 1000 µM, the GI50 (U251 CNS) was 0.226 µM and the TGI (U251 CNS) was > 1000 µM. The TGI (SF-295 CNS) was > 1000 µM, the TGI (NCI/ADR-RES ovarian) was > 1000 µM and the TGI (LOX IMVI melanoma) was > 1000 µM. The TGI (SR leukemia) was > 1000 µM, the TGI (NCI-H460 lung) was > 1000 µM and the TGI (DMS 114 small cell lung) was > 66.7 µM. The TGI (UACC-257 melanoma) was > 1000 µM, the TGI (DU-145 prostate) was > 1000 µM and the TGI (IGROV1 ovarian) was > 1000 µM. The TGI (OVCAR-8 ovarian) was > 1000 µM, the TGI (SF-539 CNS) was > 1000 µM and the TGI (UACC-62 melanoma) was > 1000 µM.

Source: PubChem BioAssay (NCI)
